In ChEMBL document CHEMBL1121705, “Synthesis and angiotensin-converting enzyme inhibitory activity of 3-(Mercaptomethyl)-2-oxo-1-pyrrolidineacetic acids and 3-(Mercaptomethyl)-2-oxo-1-piperidineacetic acids” (J Med Chem, 1981) one finds IC50 data, which are given here for one molecule.

Each structure is given as a SMILES string.

The target in the test is Angiotensin-converting enzyme (Homo sapiens, UniProt P12821). The test is described as follows: Concentration required for 50% inhibition of Angiotensin I converting enzyme. It counts as protein assay, Cavia porcellus.
Angiotensin-converting enzyme, sequence (P12821 whole entry): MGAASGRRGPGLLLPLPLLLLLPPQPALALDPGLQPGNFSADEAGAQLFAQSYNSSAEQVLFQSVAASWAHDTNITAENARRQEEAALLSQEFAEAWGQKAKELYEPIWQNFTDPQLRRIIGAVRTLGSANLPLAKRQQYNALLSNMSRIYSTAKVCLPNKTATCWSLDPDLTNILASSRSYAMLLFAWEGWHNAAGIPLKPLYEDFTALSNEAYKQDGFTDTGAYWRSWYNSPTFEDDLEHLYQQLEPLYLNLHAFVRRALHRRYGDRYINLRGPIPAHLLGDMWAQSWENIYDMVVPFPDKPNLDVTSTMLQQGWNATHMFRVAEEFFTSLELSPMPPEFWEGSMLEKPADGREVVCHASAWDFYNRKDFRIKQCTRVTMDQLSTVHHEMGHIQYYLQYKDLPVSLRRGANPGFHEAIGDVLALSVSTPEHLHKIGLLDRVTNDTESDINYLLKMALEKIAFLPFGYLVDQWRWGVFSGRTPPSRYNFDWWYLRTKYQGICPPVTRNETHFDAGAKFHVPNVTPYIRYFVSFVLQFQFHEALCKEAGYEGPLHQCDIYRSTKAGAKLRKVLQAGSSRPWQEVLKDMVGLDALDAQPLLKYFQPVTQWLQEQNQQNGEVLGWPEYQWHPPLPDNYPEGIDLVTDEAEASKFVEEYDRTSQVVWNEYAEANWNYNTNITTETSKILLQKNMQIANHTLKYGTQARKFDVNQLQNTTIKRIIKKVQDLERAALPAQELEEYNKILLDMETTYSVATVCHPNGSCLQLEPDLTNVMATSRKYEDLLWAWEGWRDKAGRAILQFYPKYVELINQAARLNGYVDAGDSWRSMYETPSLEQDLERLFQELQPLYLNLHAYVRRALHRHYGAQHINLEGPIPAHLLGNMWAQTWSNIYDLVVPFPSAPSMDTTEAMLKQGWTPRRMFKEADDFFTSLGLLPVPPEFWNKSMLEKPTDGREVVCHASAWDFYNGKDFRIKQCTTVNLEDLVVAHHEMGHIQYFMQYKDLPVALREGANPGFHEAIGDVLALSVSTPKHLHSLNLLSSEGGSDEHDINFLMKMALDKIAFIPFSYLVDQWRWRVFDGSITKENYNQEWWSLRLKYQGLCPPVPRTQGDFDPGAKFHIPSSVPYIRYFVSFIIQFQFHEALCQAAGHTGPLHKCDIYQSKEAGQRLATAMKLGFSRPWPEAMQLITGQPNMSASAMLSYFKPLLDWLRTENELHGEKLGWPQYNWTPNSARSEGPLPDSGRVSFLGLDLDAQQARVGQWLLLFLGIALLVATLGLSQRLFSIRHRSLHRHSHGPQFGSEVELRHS

For the molecule `CC(=O)SCC1CCCN(CC(N)=O)C1=O` (stereo unspecified), the IC50 result is reported as “Not Active”.
